# Source: ChEMBL document CHEMBL1201862, “PubChem BioAssay data set” (2004)
# Activity calls are given as the source filed them. Cut-off read from the data, not from the text of the source: actives have a measured IC50 and inactives only a lower limit.
# Target: Envelope glycoprotein gp160 (Human immunodeficiency virus 1, UniProt Q6QLK5)
# Assay: cell-free HIV fusion peptide-binding blockers – biochemical, uHTS, fluorescence dequenching, […] (AID 1986)
# Chain of Envelope glycoprotein gp160 (Q6QLK5 whole entry, the tested form may be a part): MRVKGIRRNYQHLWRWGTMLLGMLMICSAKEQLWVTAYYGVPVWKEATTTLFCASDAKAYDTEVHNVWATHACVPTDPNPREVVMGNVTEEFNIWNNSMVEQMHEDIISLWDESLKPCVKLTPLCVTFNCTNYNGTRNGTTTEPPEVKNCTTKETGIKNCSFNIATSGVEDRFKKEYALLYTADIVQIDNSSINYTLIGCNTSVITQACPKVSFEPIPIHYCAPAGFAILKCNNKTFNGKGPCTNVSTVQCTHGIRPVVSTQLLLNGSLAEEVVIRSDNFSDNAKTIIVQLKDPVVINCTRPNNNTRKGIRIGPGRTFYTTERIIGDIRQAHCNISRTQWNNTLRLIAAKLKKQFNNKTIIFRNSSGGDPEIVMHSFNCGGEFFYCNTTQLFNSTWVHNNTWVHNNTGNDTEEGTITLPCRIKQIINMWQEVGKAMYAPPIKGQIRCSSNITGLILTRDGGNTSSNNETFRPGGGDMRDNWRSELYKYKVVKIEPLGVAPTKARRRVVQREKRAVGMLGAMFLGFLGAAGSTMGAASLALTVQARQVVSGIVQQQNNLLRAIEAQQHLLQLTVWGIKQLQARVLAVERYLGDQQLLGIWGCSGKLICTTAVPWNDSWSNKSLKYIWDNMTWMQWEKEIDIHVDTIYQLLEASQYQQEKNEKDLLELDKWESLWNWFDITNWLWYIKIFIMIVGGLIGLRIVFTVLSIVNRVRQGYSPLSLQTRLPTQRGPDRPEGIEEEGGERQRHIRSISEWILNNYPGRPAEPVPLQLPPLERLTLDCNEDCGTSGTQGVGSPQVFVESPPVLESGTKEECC
row,Compound,IC50
1,COc1cccc(NS(=O)(=O)c2ccc3c(c2)C2C=CCC2C(c2ccc(C(=O)O)cc2)N3)c1 (stereo not drawn),11.9 µM (active)
2,COc1ccc(-c2nn(-c3ccccc3)cc2/C=C2/SC(=S)N(CCC(=O)O)C2=O)c(C)c1,12.5 µM (active)
3,CCS(=O)(=O)C1=NN2C(=N)/C(=C\c3ccc(OCCOc4cccc(OC)c4)c(OC)c3)C(=O)N=C2S1,9.24 µM (active)
